Measurements from ChEMBL document CHEMBL1158670, “Mediation of the cytotoxicity of lanostanoids and steroids of Ganoderma tsugae through apoptosis and cell cycle” (J Nat Prod, 1998).
In brackets after ≈: the same amount, converted by molar mass. Activity calls are given as the source filed them. The calls are words filed in the database; no cut-off is given here.

Assays:
[1] = Cell cycle arrest in human Hep3B cells by accumulation at G0/G1 phase at 20 ug/mL after 24 hrs by flow cytometry; assay type: functional, cell-based; details: Hep 3B2
[2] = Cell cycle arrest in human Hep3B cells by accumulation at S phase at 20 ug/mL after 24 hrs by flow cytometry; assay type: functional, cell-based; details: Hep 3B2
[3] = Cell cycle arrest in human Hep3B cells by accumulation at G2/M phase at 20 ug/mL after 24 hrs by flow cytometry; assay type: functional, cell-based; details: Hep 3B2
[4] = Cell cycle arrest in human Hep3B cells by accumulation at G0/G1 phase at 35 ug/mL after 24 hrs by flow cytometry; assay type: functional, cell-based; details: Hep 3B2
[5] = Cell cycle arrest in human Hep3B cells by accumulation at S phase at 35 ug/mL after 24 hrs by flow cytometry; assay type: functional, cell-based; details: Hep 3B2
[6] = Cell cycle arrest in human Hep3B cells by accumulation at G2/M phase at 35 ug/mL after 24 hrs by flow cytometry; assay type: functional, cell-based; details: Hep 3B2
[7] = Cell cycle arrest in human Hep3B cells by accumulation at G0/G1 phase at 50 ug/mL after 24 hrs by flow cytometry; assay type: functional, cell-based; details: Hep 3B2
[8] = Cell cycle arrest in human Hep3B cells by accumulation at S phase at 50 ug/mL after 24 hrs by flow cytometry; assay type: functional, cell-based; details: Hep 3B2
[9] = Cell cycle arrest in human Hep3B cells by accumulation at G2/M phase at 50 ug/mL after 24 hrs by flow cytometry; assay type: functional, cell-based; details: Hep 3B2
[10] = Cell cycle arrest in human Hep3B cells by accumulation at G0/G1 phase at 100 ug/mL after 24 hrs by flow cytometry; assay type: functional, cell-based; details: Hep 3B2
[11] = Cell cycle arrest in human Hep3B cells by accumulation at S phase at 100 ug/mL after 24 hrs by flow cytometry; assay type: functional, cell-based; details: Hep 3B2
[12] = Cell cycle arrest in human Hep3B cells by accumulation at G2/M phase at 100 ug/mL after 24 hrs by flow cytometry; assay type: functional, cell-based; details: Hep 3B2
[13] = Cell cycle arrest in human Hep3B cells by accumulation at G2/M phase after 24 hrs by flow cytometry; assay type: functional, cell-based, Hep 3B2
[14] = Cell cycle arrest in human Hep3B cells by accumulation at subG1 phase at 24 ug/mL after 24 hrs by flow cytometry; assay type: functional, cell-based; details: Hep 3B2

With `CC(C)[C@@H](C)/C=C/[C@@H](C)[C@H]1CC[C@H]2C3=CC[C@H]4C[C@H](O)[C@@H](O)C[C@]4(C)[C@@]3(O)CC[C@]12C` the Activity [1] was 50.6%, the Activity [2] was 36.8% and the Activity [3] was 12.6%. For the same compound, the Activity [4] was 55.3%, the Activity [5] was 35% and the Activity [6] was 9.8%. It also gave an Activity [7] of 55.3%, an Activity [8] of 35.5% and an Activity [9] of 9.2%. It also gave an Activity [10] of 57.8%, an Activity [11] of 37% and an Activity [12] of 5.2%. It also gave an IC50 [13] of 87.1 µg/mL (≈ 202 µM).

In the case of `CC(=O)O[C@@H]1CC[C@]2(C)C3=C(CC[C@H]2C1(C)C)[C@]1(C)CC[C@H]([C@@H](CCC=C(C)C)C(=O)O[C@@H]2O[C@H](CO)[C@@H](O)[C@H](O)[C@H]2O)[C@@]1(C)CC3`, the Activity [14] is reported as “Active”.
